Data set [1] in a line: Solubility in purified water. The data set is classed as physicochemical. To be noted: thermodynamic from solid, compound added stepwise to 2 mL until hypersaturated or 2.0 g added. The protocol:
About […] of the compound (A or B or C) to be tested was weighed and placed into a 10 mL sample tube, 2 mL of purified water was added, and the mixture was mixed well. In case of complete dissolution, about […] of the compound to be tested was replenished continuously, and the mixture was mixed well until a hypersaturated state was reached or the compound to be tested was added to 2.0 g. If the compound to be tested was added to […] and is still completely dissolved, the solubility of the compound to be tested in water was recorded as >1.0 g/mL.

Data set [2] deals with inflammatory factor MCP-1 mRNA in H9c2 cells. Put plainly: TNF-α-induced H9c2 cell inflammation model, MCP-1 mRNA by RT-PCR. In kind it is cell-based, rat. To be noted: 2 h pre-incubation, 10 ng/mL TNF-α for 1 h, compounds A and C 5/1/0.2 mM, compound B 3/1/0.2 mM, FIG. 8. The protocol:
The pH value was adjusted to 7.2 with 1 M HCl, and ultrapure water was used to reach the constant volume of 1 L. Finally, the medium was filtered into a sterile container by membrane filtration using a 0.22 m constant-volume filter. (After filtration, the pH value might rise by 0.1 to 0.3 units) • 1.3 Formulation of positive control drug: a dexamethasone solution: […] of dexamethasone was added to 5 mL of DMSO and shaken for dissolution. 1000×solution (10 mM) was obtained. The solution was aliquoted and stored in a refrigerator at −20° C. • 1.4 Formulation of test sample solution: […]
Compound A/compound B/compound C: the test sample was weighed at an appropriate mass and dissolved in DMSO to formulate a solution with a final concentration of 1 M, and the solution was aliquoted and then stored at −20° C. • 1.5 Penicillin/streptomycin biantibiotics solution: 8 million units/vial penicillin plus 40 mL of ultrapure water were mixed well, 1 g/vial streptomycin plus 50 mL of ultrapure water were mixed well, the two mixtures were mixed at a volume ratio of 1:1 to obtain 100×penicillin-streptomycin biantibiotics solution (containing 100,000 units/mL penicillin and 10 mg/mL streptomycin). After filtration through a 0.22 m sterile microfiltration membrane, the solution was aliquoted at 10 mL/tube, and stored in a refrigerator at −20° C. • 1.6 Formulation of buffer solution: • PBS: […] of NaCl, […] of KCl, […] of Na2HPO4 and […] of KH2PO4 were respectively weighed and placed in a 1 L volumetric flask; ultrapure water was added to 900 mL; the pH was adjusted to 7.2 with concentrated hydrochloric acid; and the volume was finalized to 1 L. The mixture was stored at room temperature. • 2. […]

`CCN(CC)CCOC(=O)c1ccccc1OC(=O)CCl` [compound B]: the solubility in data set [1] is greater than 1000 mg/mL. For the same compound, the “inhibition of the elevation of the mRNA level of the inflammatory factor MCP-1” value (shortened to “inhibition”) in data set [2] was “dose-dependent inhibition”.

Consider `CCN(CC)CCOC1(C)OC(=O)c2ccccc2O1` (stereo not drawn) [compound C], for which, in data set [1], the solubility was greater than 1000 mg/mL. Further, the “inhibition” value in data set [2] is recorded as “dose-dependent inhibition”.

Take `CC[N+]([O-])(CC)CCOC(=O)c1ccccc1OC(C)=O` [compound A]: the solubility in data set [1] is greater than 1000 mg/mL. The “inhibition” value in data set [2] is on record as “dose-dependent inhibition”.

These data come from patent US12454506B2, “Benzoate derivatives” (ZHEJIANG YUEJIA PHARMACEUTICALS CO., LTD, priority 2022, dated 2025).
